This note sets out measurements from publication PMC11859928, “Design, Synthesis, and Antiproliferative Activity of Novel Indole/1,2,4-Triazole Hybrids as Tubulin Polymerization Inhibitors” (Pharmaceuticals, 2025).

The subject of one experiment is HOP-62. The experiment can be described thus: NCI one-dose assay. To be noted: Homo sapiens, HOP-62, Non-small cell lung cancer, read-out: Cell growth inhibition %. It is filed as cell-based.
In the next experiment the test system is HT29. The experiment is described as follows: NCI one-dose assay. It is filed as cell-based. The conditions noted are these: Homo sapiens, HT-29, HT29, Colon cancer, read-out: Cell growth inhibition %.
The subject of the next experiment is M14. The experiment is described as follows: NCI one-dose assay. It is filed as cell-based. To be noted: Homo sapiens, M14, Melanoma, read-out: Cell growth inhibition %.
A further experiment concerns MCF7. The experiment is described as follows: NCI one-dose assay. The format is cell-based. To be noted: Homo sapiens, MCF7, Breast cancer, read-out: Cell growth inhibition %.
For a further experiment, the system named is MDA-MB-435. The experiment is described as follows: NCI one-dose assay. The format is cell-based. To be noted: Homo sapiens, MDA-MB-435, Melanoma, read-out: Cell growth inhibition %.
A further experiment concerns MDA-MB-468. The experiment can be described thus: NCI one-dose assay. The format is cell-based. The conditions noted are these: Homo sapiens, MDA-MB-468, Breast cancer, read-out: Cell growth inhibition %.
In a further experiment the test system is NCI-H322M. The experiment can be described thus: NCI one-dose assay. The format is cell-based. To be noted: Homo sapiens, Non-small cell lung cancer, read-out: Cell growth inhibition %.
A further experiment has as its system OVCAR-4. The experiment can be described thus: NCI one-dose assay. It is filed as cell-based. To be noted: Homo sapiens, OVCAR-4, Ovarian cancer, read-out: Cell growth inhibition %.
A further experiment relates to OVCAR-8. The experiment is described as follows: NCI one-dose assay. The format is cell-based. To be noted: Homo sapiens, OVCAR-8, Ovarian cancer, read-out: Cell growth inhibition %.
The subject of another experiment is RXF 393. The experiment is described as follows: NCI one-dose assay. It is filed as cell-based. To be noted: Homo sapiens, RXF 393, Renal cancer, read-out: Cell growth inhibition %.
Another experiment has as its system SF-268. The experiment is described as follows: NCI one-dose assay. It is filed as cell-based. To be noted: Homo sapiens, SF-268, CNS cancer, read-out: Cell growth inhibition %.
The next experiment deals with SK-MEL-2. The experiment can be described thus: NCI one-dose assay. To be noted: Homo sapiens, SK-MEL-2, Melanoma, read-out: Cell growth inhibition %. The format is cell-based.
In another experiment the test system is SK-MEL-5. The experiment can be described thus: NCI one-dose assay. To be noted: Homo sapiens, SK-MEL-5, Melanoma, read-out: Cell growth inhibition %. The format is cell-based.
Another experiment has as its system SNB-19. The experiment can be described thus: NCI one-dose assay. It is filed as cell-based. To be noted: Homo sapiens, SNB-19, CNS cancer, read-out: Cell growth inhibition %.
The next experiment relates to SNB-75. The experiment is described as follows: NCI one-dose assay. The format is cell-based. The conditions noted are these: Homo sapiens, SNB-75, CNS cancer, read-out: Cell growth inhibition %.
The next experiment concerns SW-620. The experiment is described as follows: NCI one-dose assay. The format is cell-based. To be noted: Homo sapiens, SW-620, Colon cancer, read-out: Cell growth inhibition %.
For the next experiment, the system named is T-47D. The experiment can be described thus: NCI one-dose assay. The format is cell-based. To be noted: Homo sapiens, T47D, Breast cancer, read-out: Cell growth inhibition %.
A further experiment deals with TK-10. The experiment can be described thus: NCI one-dose assay. The conditions noted are these: Homo sapiens, TK-10, Renal cancer, read-out: Cell growth inhibition %. The format is cell-based.
The subject of a further experiment is 786-0. The experiment is described as follows: NCI one-dose assay. It is filed as cell-based, human. To be noted: Homo sapiens, 786-0, 786-0, Renal cancer, read-out: Cell growth inhibition %. The method, then:
(§1) The National Cancer Institute (NCI), Bethesda, USA, selected the final compounds 6a–j and 7a–j for in vitro anticancer screening. An initial in vitro single-dose anticancer experiment was performed with the entire NCI 60 cell lines derived from nine tumor subpanel cancer cell lines. The results for each compound were illustrated as a mean graph showing the percentage growth of treated cells compared to untreated control cells (see Supplementary Materials).
(§2) The NCI anticancer screening process has been thoroughly detailed. The Drug Evaluation Branch of the National Cancer Institute in Bethesda, […], USA, established the procedure and conducted the anticancer assay on 60 human tumor cell lines from nine neoplastic cancers.

In a further experiment the test system is HOP-92. The experiment is described as follows: NCI one-dose assay. It is filed as cell-based, human. The conditions noted are these: for inhibition at 10 µM: Homo sapiens, HOP-92, HOP-92, Non-small cell lung cancer, read-out: Cell growth inhibition %. The method, then:
as §1, §2

For another experiment, the system named is UO-31. The experiment can be described thus: NCI one-dose assay. The format is cell-based, human. To be noted: for inhibition at 10 µM: Homo sapiens, UO-31, UO-31, Renal cancer, read-out: Cell growth inhibition %; for Cell growth inhibition %: UO-31, Renal cancer, 10 µM. As to the method: as §1, §2
A further experiment has as its system NCI 60 cell lines. The experiment is described as follows: NCI one-dose assay, full panel. The conditions noted are these: across all cell lines, 10 µM. It is filed as cell-based, human. The method, then: as §1, §2

As to `C=CCn1c(SCC(=O)c2ccccc2)nnc1-c1c[nH]c2ccccc12` [Compound 6a, 2-((4-Allyl-5-(1H-indol-3-yl)-4H-1,2,4-triazol-3-yl)thio)-1-phenylethanone], the inhibition at 10 µM in the experiment with HOP-62 is 7.46%; in the experiment on HT29, -11.8%; with M14 it was 2.35%; with MCF7 it was 2.77%; in the experiment with MDA-MB-435 it was -5.02%; in the experiment on MDA-MB-468, 12.3%. Besides, the inhibition at 10 µM in the experiment on NCI-H322M is -1.89%; in the experiment with OVCAR-4, 2.53%; with OVCAR-8, 4.58%; in the experiment with RXF 393, -2.2%; with SF-268, -1.91%; in the experiment on SK-MEL-2, -4.98%. Moreover, the inhibition at 10 µM in the experiment on SK-MEL-5 is 3.38%; in the experiment on SNB-19, 1.66%; in the experiment with SNB-75 it was 3.62%; in the experiment with SW-620, 3.89%; in the experiment on T-47D, 5.03%; in the experiment on TK-10, -43.9%. Moreover, the inhibition at 10 µM with 786-0 is -1.07%; in the experiment with HOP-92, 18.7%; in the experiment with UO-31, 35%. The “Cell growth inhibition %” value in the experiment on UO-31 was determined as 34.27%.
As for `C=CCn1c(SCC(=O)c2ccc(OC)cc2)nnc1-c1c[nH]c2ccccc12` [Compound 6b, 2-((4-Allyl-5-(1H-indol-3-yl)-4H-1,2,4-triazol-3-yl)thio)-1-(4-methoxyphenyl) Ethenone], the inhibition at 10 µM in the experiment with HOP-62 was 6.07%; in the experiment with HT29, -12.7%; in the experiment on M14 it was -1.55%; with MCF7, 5.93%; in the experiment on MDA-MB-435, -8.45%; with MDA-MB-468, 5.01%. The inhibition at 10 µM in the experiment with NCI-H322M is 2.42%; in the experiment on OVCAR-4, -4.81%; in the experiment on OVCAR-8 it was 4.99%; in the experiment on RXF 393 it was -5.88%; with SF-268, -8.99%; in the experiment on SK-MEL-2 it was -33.2%. Further, the inhibition at 10 µM is 3.34% in the experiment on SK-MEL-5; -1.42% in the experiment on SNB-19; -14.8% with SNB-75; 0.51% in the experiment on SW-620; 11.1% with T-47D; -40.5% in the experiment on TK-10. In addition, the inhibition at 10 µM in the experiment with 786-0 is -1.31%; in the experiment on HOP-92, 17.3%; with UO-31, 26.9%. In the experiment with NCI 60 cell lines, the “anticancer activity (in words)” value is on record as “minimal anticancer activity”.
`C=CCn1c(SCC(=O)c2ccc(C)cc2)nnc1-c1c[nH]c2ccccc12` [Compound 6c, 2-((4-allyl-5-(1H-indol-3-yl)-4H-1,2,4-triazol-3-yl)thio)-1-(p-tolyl)ethanone]: the inhibition at 10 µM in the experiment on HOP-62 was 9.23%; in the experiment on HT29, -6.98%; in the experiment on M14, 4.78%; with MCF7, 9.88%; with MDA-MB-435, -2.15%; in the experiment on MDA-MB-468 it was 12.5%. The inhibition at 10 µM with NCI-H322M is 0.83%; with OVCAR-4 it was -10.4%; with OVCAR-8, 10.4%; with RXF 393, -0.07%; in the experiment on SF-268, -3.82%; with SK-MEL-2 it was 1.54%. Besides, the inhibition at 10 µM in the experiment on SK-MEL-5 was 6.71%; in the experiment with SNB-19 it was 3.56%; in the experiment with SNB-75 it was -4.77%; with SW-620 it was -0.34%; with T-47D, 9.92%; in the experiment with TK-10, -39.1%. Moreover, the results for the inhibition at 10 µM with 786-0, in the experiment on HOP-92 and with UO-31 were 2.26%, 50% and 29.7%, respectively. For the same compound, in the experiment on HOP-92 (HOP-92, Non-small cell lung cancer, 10 µM), the “Cell growth inhibition %” value was 49.73%.
Regarding `C=CCn1c(SCC(=O)c2ccc(Br)cc2)nnc1-c1c[nH]c2ccccc12` [Compound 6d, 2-((4-Allyl-5-(1H-indol-3-yl)-4H-1,2,4-triazol-3-yl)thio)-1-(4-bromophenyl)ethenone], the inhibition at 10 µM in the experiment with HOP-62 was -2.78%; in the experiment with HT29, -4.18%; in the experiment on M14, 2.64%; in the experiment with MCF7 it was 2.11%; in the experiment with MDA-MB-435, -8.05%; in the experiment on MDA-MB-468, 13.1%. Further, the inhibition at 10 µM with NCI-H322M is 0.55%; with OVCAR-4, -8.69%; in the experiment with OVCAR-8 it was 5.3%; in the experiment with RXF 393, -12.8%; in the experiment on SF-268, -1.95%; in the experiment with SK-MEL-2 it was -15.3%. Moreover, the inhibition at 10 µM in the experiment on SK-MEL-5 was 4.07%; in the experiment with SNB-19, -0.26%; in the experiment on SNB-75, -6.14%; in the experiment on SW-620, -10.2%; with T-47D it was 2.98%; in the experiment with TK-10 it was -34.3%. In addition, the inhibition at 10 µM in the experiment with 786-0 came out at 1.44%; in the experiment on HOP-92 it was 8.6%; with UO-31, 31.6%. Moreover, in the experiment on NCI 60 cell lines, the “anticancer activity (in words)” value is recorded as “minimal anticancer activity”.
`C=CCn1c(SCC(=O)c2ccc(Cl)cc2)nnc1-c1c[nH]c2ccccc12` [Compound 6e, 2-((4-Allyl-5-(1H-indol-3-yl)-4H-1,2,4-triazol-3-yl)thio)-1-(4-chlorophenyl)ethenone]: the inhibition at 10 µM in the experiment with HOP-62 was 4.08%; in the experiment with HT29, -7.4%; in the experiment on M14, 6.76%; with MCF7, 7.08%; with MDA-MB-435 it was -5.05%; with MDA-MB-468, 8%. In addition, the inhibition at 10 µM in the experiment with NCI-H322M is -2.47%; in the experiment with OVCAR-4 it was -8%; in the experiment with OVCAR-8 it was 9.77%; in the experiment on RXF 393, -9.22%; in the experiment with SF-268 it was -4.81%; in the experiment on SK-MEL-2, -17.1%. Further, the inhibition at 10 µM in the experiment with SK-MEL-5 is 3.94%; in the experiment with SNB-19, 0.6%; in the experiment on SNB-75 it was -0.53%; in the experiment on SW-620, -2.66%; in the experiment with T-47D, 3.25%; in the experiment on TK-10, -24.3%. Moreover, the inhibition at 10 µM stood at 3.55% in the experiment on 786-0, 21% in the experiment with HOP-92 and 28.5% in the experiment with UO-31. In addition, the “anticancer activity (in words)” value in the experiment with NCI 60 cell lines is on record as “minimal anticancer activity”.
For the compound `C=CCn1c(SC/C(=N\O)c2ccc(C)cc2)nnc1-c1c[nH]c2ccccc12` [Compound 7c, (Z)-2-((4-allyl-5-(1H-indol-3-yl)-4H-1,2,4-triazol-3-yl)thio)-1-(p-tolyl)ethanone Oxime], the inhibition at 10 µM is 8.72% in the experiment with HOP-62; -4.09% in the experiment on HT29; 5.59% in the experiment on M14; 11.9% with MCF7; -2.07% with MDA-MB-435; 27.1% in the experiment on MDA-MB-468. For the same compound, the inhibition at 10 µM in the experiment with NCI-H322M was 5.67%; in the experiment on OVCAR-4 it was 6.11%; with OVCAR-8, 8.49%; in the experiment on RXF 393, -5.46%; in the experiment with SF-268, 3.63%; with SK-MEL-2, 1.01%. For the same compound, the inhibition at 10 µM was 11.1% with SK-MEL-5; 8.04% in the experiment on SNB-19; 2.58% in the experiment with SNB-75; 4.06% in the experiment on SW-620; 26.5% with T-47D; -26.8% in the experiment with TK-10. The inhibition at 10 µM with 786-0 is -2.2%; with HOP-92, 7.98%; with UO-31 it was 35%. Also, the “Cell growth inhibition %” value in the experiment with UO-31 was 34.99%.
